These results are taken from US9963451B2, “Fused ring pyrimidine compound and pest control agent containing the same” (Mitsui Chemicals Agro, Inc., priority 2013, dated 2018).

Counter-ions that a name gives are not always drawn. Like-named read-outs stand apart in the source and are kept apart here.

Holding throughout (format): in vivo
One assay relates to Laodelphax striatellus. In words: whole plant or invertebrate. As to conditions: Laodelphax striatellus, in Oryza sativa, 144 h, read-out: Insect death ratio (%). How it is done:
Insecticidal Test Against Laodelphax striatellus
A chemical solution diluted to have a pre-determined concentration was sprayed to young rice plant (breed: Koshihikari) followed by air drying. Then, it was added to a glass test tube (diameter of 3 cm and height of 10 cm) added with water together with ten 3-stage larvae of Laodelphax striatellus. The tube was then covered. The number of living insects was determined after 6 days and the dead insect ratio was calculated. There were two series, i.e., 10 insects per group. Meanwhile, in Table 29, when combination of two types of test chemicals are used (i.e., A and B), the combination of the two types was described as A+B, and in the concentration column (ppm), it was described as concentration of A+concentration of B.

The test system of the next assay is Chilo suppressalis. In words: Test Example 10: insecticidal test against Chilo suppressalis (rice stem dip, single and combined chemicals). As to conditions: after 6 days; for pest or weed control at 1 ppm / Insect death ratio (%): 1 ppm. How it is done:
Insecticidal Test Against Chilo suppressalis
A stem part was cut from a rice plant (breed: Koshihikari) cultivated in water and it was immersed in a chemical solution which has been diluted to have a pre-determined concentration. After air drying, it was put into a 9 cm polyethylene cup having a water-wetted filter paper laid on the bottom thereof, and 3-stage larvae of Chilo suppressalis were released and covered. They were left to stand in an incubator at 25° C., and the numbers of living insects and dead insects were examined after 6 days. There were two series, i.e., 5 insects per group. Meanwhile, in Table 30, when combination of two types of test chemicals are used (i.e., A and B), the combination of the two types was described as A+B, and in the concentration column (ppm), it was described as concentration of A+concentration of B.

The next assay has as its system Pyricularia oryzae. The assay can be described thus: whole plant or invertebrate.
The test system of another assay is Callosobruchus chinensis. In words: Test Example 5: insecticidal test against Callosobruchus chinensis (petri dish dry film). The note with it: 24 h, read-out: insect death ratio. How it is done:
Insecticidal Test Against Callosobruchus chinensis
1 ml of acetone solution in which a test compound had been diluted at a predetermined concentration was added dropwise to a petri dish having a diameter of 9 cm, and air dried, and then ten adults of Callosobruchus chinensis were released and the petri dish was covered. They were left to stand in an incubator at 25° C., and the numbers of living insects and dead insects were examined after 1 day. There was no series.

In another assay the test system is Plutella xylostella. In words: Test Example 4: insecticidal test against Plutella xylostella (cabbage leaf dip). The note with it: foliar, 144 h, read-out: insect death ratio. Here is the method:
Insecticidal Test Against Plutella xylostella
A piece of a cabbage leaf was immersed for 30 seconds in a chemical solution in which the test compound had been added at a predetermined concentration, and air dried, and then put into a 7 cm polyethylene cup having a filter paper laid on the bottom thereof, and five 3-stage larvae of Plutella xylostella were released. They were left to stand in an incubator at 25° C., and the numbers of living insects and dead insects were examined after 6 days. There was no series.

Setting [1] is: Chilo suppressalis, 144 h, read-out: Insect death ratio (%).
Setting [2] is: Pyricularia oryzae, 168 h, read-out: Rice blast control value.
Where [3] appears, read: concentration of 1000 ppm, cabbage leaf dip, 3-stage larvae, 25° C., after 6 days.

Take `COP(=O)(NC(C)=O)SC` (centres unmarked) [Acephate, acephate]: the pest or weed control at 3 ppm in the assay with Laodelphax striatellus stood at 20%. As to `CC(C)N1C(=O)N(c2ccccc2)CS/C1=N\C(C)(C)C` [Buprofezin, buprofezin], in the assay on Laodelphax striatellus (1 ppm, after 6 days), the pest or weed control at 1 ppm stood at 70%. As for `CN(C)C(CSC(N)=O)CSC(N)=O` [Cartap, Cartap hydrochloride], in the assay on Chilo suppressalis (Chilo suppressalis, 144 h, 300 ppm, read-out: Insect death ratio (%)), the pest or weed control at 300 ppm came to 90%. As for `CNC(=O)c1cc(Cl)cc(C)c1NC(=O)c1cc(Br)nn1-c1ncccc1Cl` [Chlorantraniliprole, chlorantraniliprole], the pest or weed control at 1 ppm with Chilo suppressalis (setting [1]) was determined as 80%.

For the molecule `CNC(=O)c1cc(C#N)cc(C)c1NC(=O)c1cc(Br)nn1-c1ncccc1Cl` [Cyantraniliprole, cyantraniliprole], in the assay with Chilo suppressalis (setting [1]), the pest or weed control at 1 ppm is 80%. As for `CN(C(=O)c1ccccc1)c1cccc(C(=O)Nc2c(Br)cc(C(F)(C(F)(F)F)C(F)(F)F)cc2C(F)(F)F)c1F` [DD-1], in the assay with Chilo suppressalis (setting [1]), the pest or weed control at 0.1 ppm was found to be 90%. The same measure, in the same setting: to `CN(C(=O)c1ccc(F)cc1)c1cccc(C(=O)Nc2c(I)cc(C(F)(C(F)(F)F)C(F)(F)F)cc2C(F)(F)F)c1F` [DD-2] belongs 100%; to `O=C(Nc1c(I)cc(C(F)(C(F)(F)F)C(F)(F)F)cc1C(F)(F)F)c1cccc(NC(=O)c2cccnc2Cl)c1` [DD-3], 100%.

Consider `C[C@@H](NC(=O)C(C#N)C(C)(C)C)c1ccc(Cl)cc1Cl` (some centres unmarked) [Diclocymet, diclocymet], for which the pest or weed control at 1.5 ppm in the assay with Pyricularia oryzae (setting [2]) stood at 95%.

As to `CC1(C)N=C(c2cnc3ccccc3c2)c2ccccc2C1(F)F` [EE-1], the pest or weed control at 50 ppm with Pyricularia oryzae (setting [2]) worked out at 97%. Still for that read-out and setting: under `CC1(C)N=C(c2cnc3ccccc3c2)c2cccc(F)c2C1(C)C` [EE-2] stands 95%. Still for that read-out and setting: to `CC1(C)N=C(c2cnc3ccccc3c2)c2cccc(F)c2C1(F)F` [EE-3] belongs 97%.

Take `CC[S+]([O-])c1c(C#N)nn(-c2c(Cl)cc(C(F)(F)F)cc2Cl)c1N` (centres unmarked) [Ethiprole, ethiprole]: the pest or weed control at 3 ppm with Laodelphax striatellus (3 ppm, after 6 days) was 20%.

Turning to `Cc1cc(C(F)(C(F)(F)F)C(F)(F)F)ccc1NC(=O)c1cccc(I)c1C(=O)NC(C)(C)CS(C)(=O)=O` [Flubendiamide, flubendiamide], the pest or weed control at 1 ppm in the assay on Chilo suppressalis (setting [1]) is 80%.

With `CC(C)OC(=O)C(C(=O)OC(C)C)=C1SCCS1` [Isoprothiolane, isoprothiolane], the pest or weed control at 6 ppm in the assay with Pyricularia oryzae (setting [2]) was 97%. Take `N#Cc1ccccc1NC(=O)c1snc(Cl)c1Cl` [Isotianil, isotianil]: in the assay with Pyricularia oryzae (1 ppm, spots counted 7 days later), the “Rice blast control value” was 97. As for `CNC(=O)/C(=N/OC)c1ccccc1CO/N=C(C)/C(=N/OC)C(/C)=N/OC` [Orysastrobin, orysastrobin], the “Rice blast control value” in the assay on Pyricularia oryzae (3.5 ppm, spots counted 7 days later) amounted to 95. In the case of `C=CCOC1=NS(=O)(=O)c2ccccc21` [Probenazole, probenazole], in the assay on Pyricularia oryzae (setting [2]), the pest or weed control at 12 ppm turned out to be 96%.

Turning to `CC(=O)Oc1c(C)c(C)nc2c(F)cc(C(C)(C)C)cc12` [Tebufloquin, tebufloquin], the “Rice blast control value” in the assay on Pyricularia oryzae (100 ppm, spots counted 7 days later) is 98.

Regarding `Cc1ccc(C(=O)NC[C@@H](NC(=O)OCC(F)(F)F)C(C)C)cc1` [Tolprocarb, tolprocarb], the “Rice blast control value” with Pyricularia oryzae (in vivo) is 97. On to `Cc1cccc2sc3nncn3c12` [Tricyclazole, tricyclazole], for which, in the assay with Pyricularia oryzae (setting [2]), the pest or weed control at 2 ppm stood at 98% and the pest or weed control at 200 ppm is 97%. `Cc1cc(=O)n2nc(S(C)(=O)=O)nc2n1Cc1ccc(Cl)nc1` [compound 10, 4-((6-chloropyridin-3-yl)methyl)-5-methyl-2-(methylsulfonyl)-[1,2,4]triazolo[1,5-a]pyrimidin-7(4H)-one]: in the assay on Callosobruchus chinensis, the pest or weed control at 1000 ppm was ≥ 70%.

Take `Cc1cc(=O)n2nc(SCc3cccc(C(F)(F)F)c3)nc2n1Cc1ccc(Cl)nc1` [compound 16]: in the assay with Plutella xylostella (setting [3]), the pest or weed control at 1000 ppm is ≥ 70%.

As to `Cc1cc(=O)n2nc(SCCC(F)(F)F)nc2n1Cc1ccc(Cl)nc1` [compound 22], in the assay on Plutella xylostella, the pest or weed control at 1000 ppm was ≥ 70%. Take `Cc1cc(=O)n2nc(SCCCC(F)(F)F)nc2n1Cc1ccc(Cl)nc1` [compound 23]: the pest or weed control at 1000 ppm with Plutella xylostella is ≥ 70%. The same measure, in the same setting: under `CSc1nc2n(Cc3ccc(Cl)nc3)c(C)cc(=S)n2n1` [compound 24, 4-((6-chloropyridin-3-yl)methyl)-5-methyl-2-(methylthio)-[1,2,4]triazolo[1,5-a]pyrimidin-7(4H)-thione] stands ≥ 70%. With `CCc1c(C)n(Cc2ccc(Cl)nc2)c2nc(SC)nn2c1=O` [compound 25], in the assay on Plutella xylostella, the pest or weed control at 1000 ppm was ≥ 70%. Take `Cc1cc(=O)n2nc([S+](C)[O-])nc2n1Cc1ccc(Cl)nc1` (centres unmarked) [compound 26]: the pest or weed control at 1000 ppm in the assay on Callosobruchus chinensis was ≥ 70%. With `Cc1cc(=O)n2nc(-c3ccccc3F)nc2n1Cc1ccc(Cl)nc1` [compound 28], the pest or weed control at 1000 ppm in the assay on Plutella xylostella is ≥ 70%. On the same count and under the same terms, to `CCSc1nc2n(Cc3ccc(Cl)nc3)c(C)cc(=O)n2n1` [compound 29] belongs ≥ 70%. With `COc1nc2n(Cc3ccc(Cl)nc3)c(C)cc(=O)n2n1` [compound 45, 4-((6-chloropyridin-3-yl)methyl)-2-methoxy-5-methyl-[1,2,4]triazolo[1,5-a]pyrimidin-7(4H)-one], the pest or weed control at 1000 ppm with Callosobruchus chinensis was ≥ 70%. Regarding `Cc1cc(=O)n2nc(OCC(F)(F)F)nc2n1Cc1ccc(Cl)nc1` [compound 46], the pest or weed control at 1000 ppm with Callosobruchus chinensis is ≥ 70%.

`Cc1cc(=O)n2nc(C(C)(F)F)nc2n1Cc1ccc(Cl)nc1` [compound 59]: the pest or weed control at 1000 ppm with Callosobruchus chinensis was ≥ 70%.

On to `Cc1cc(=O)n2nc(S(C)(=O)=NC#N)nc2n1Cc1ccc(Cl)nc1` (centres unmarked) [compound 76], for which, in the assay with Callosobruchus chinensis, the pest or weed control at 1000 ppm was ≥ 70%. With `Cc1cc(=O)n2nc(-n3cccn3)nc2n1Cc1ccc(Cl)nc1` [compound 80], the pest or weed control at 1000 ppm with Callosobruchus chinensis is ≥ 70%. `Cc1cc(=O)n2nc(OC(C)c3ccc(C(F)(F)F)cc3)nc2n1Cc1ccc(Cl)nc1` (centres unmarked) [compound 106]: the pest or weed control at 1000 ppm in the assay with Plutella xylostella (setting [3]) was ≥ 70%. In the case of `CSc1nc2n(Cc3ccc(Cl)nc3)c(C)c/c(=N\O)n2n1` [compound 121, 4-((6-chloropyridin-3-yl)methyl)-5-methyl-2-(methylthio)-[1,2,4]triazolo[1,5-a]pyrimidin-7(4H)-oneoxime], the pest or weed control at 1000 ppm with Callosobruchus chinensis is ≥ 70%. As to `Cc1cc(=O)n2nc([S+]([O-])CC(F)(F)F)nc2n1Cc1ccc(Cl)nc1` (centres unmarked) [compound 189], in the assay with Plutella xylostella, the pest or weed control at 1000 ppm was ≥ 70%. For `Cc1cc(=O)n2nc(S(=O)(=O)CC(F)(F)F)nc2n1Cc1ccc(Cl)nc1` [compound 190], the pest or weed control at 1000 ppm with Callosobruchus chinensis was ≥ 70%. For `CSc1cc2n(Cc3ccc(Cl)nc3)c(C)c(C)c(=O)n2n1` [compound 236], in the assay with Plutella xylostella, the pest or weed control at 1000 ppm was ≥ 70%. Turning to `CSc1cc2n(Cc3ccc(Cl)nc3)c(C)c(F)c(=O)n2n1` [compound 237], the pest or weed control at 1000 ppm in the assay with Plutella xylostella is ≥ 70%. With `Cc1cc(=O)n2nc(C(F)F)cc2n1Cc1ccc(Cl)nc1` [compound 241], in the assay with Plutella xylostella, the pest or weed control at 1000 ppm is ≥ 70%. The same measure, in the same setting: under `CCSc1cc2n(Cc3ccc(Cl)nc3)c(C)cc(=O)n2n1` [compound 243] stands ≥ 70%. Consider `CC[S+]([O-])c1cc2n(Cc3ccc(Cl)nc3)c(C)cc(=O)n2n1` (centres unmarked) [compound 244], for which the pest or weed control at 1000 ppm with Callosobruchus chinensis is ≥ 70%. Same read-out and setting: to `Cc1cc(=O)n2nc(C(F)(F)F)cc2n1Cc1cnc(Cl)cc1Cl` [compound 248] belongs ≥ 70%; to `CCSc1cc2n(Cc3cnc(Cl)c(F)c3)c(C)cc(=O)n2n1` [compound 252], ≥ 70%; to `Cc1cc(=O)n2nc(C(F)(F)F)cc2n1Cc1cnc(Cl)c(F)c1` [compound 253], ≥ 70%. Consider `CSc1cc2n(Cc3cnc(Cl)nc3)c(C)cc(=O)n2n1` [compound 299], for which, in the assay on Callosobruchus chinensis, the pest or weed control at 1000 ppm was ≥ 70%.

Turning to `CSc1nc2n(Cc3cnc(Cl)c(F)c3)c(C)cc(=O)n2n1` [compound 306], in the assay on Callosobruchus chinensis, the pest or weed control at 1000 ppm is ≥ 70%. Consider `CSc1cc2n(Cc3cnc(Cl)c(F)c3)c(C)cc(=O)n2n1` [compound 307], for which the pest or weed control at 1000 ppm in the assay on Callosobruchus chinensis was ≥ 70%. For the molecule spinetoram, the “Insect death ratio (%)” value in the assay on Chilo suppressalis came out at 100%. The same measure, in the same setting: to spinosad belongs 70%.
